The values below come from patent publication US11497713B2, “Combination taxoid nanoemulsion with immunotherapy in cancer” (TargaGenix, Inc., priority 2017, dated 2022).

Where only a bound is given, the exact number is not on record here.

Series [1] in a line: Formulation concentration, droplet properties and storage stability.
Text: The droplet size is consistently less than 200 nm in diameter allowing one to filter sterilize the final formulation. The zeta potential of the nanoemulsion is in the range of negative 23 mV to 33 m.
For series [2], the system named is Panc02 induced tumor. As to the kind of experiment: Subcutaneous Panc02 syngeneic pancreatic cancer model, single and combination therapy. Format: in vivo, C57Bl/6 mice. The procedure:
In addition to evaluation of efficacy in CSC-rich PDAC models, the efficacy of NE-DHA-SBT-1214 in combination with antibody targeted to PD-L1 immune checkpoint inhibitor was examined in subcutaneous (subQ) Panc-2 syngeneic pancreatic cancer model developed in […] mice. After transplantation of the Panc-2 cells, the mice were divided into groups for weekly treatment by intravenous administration of vehicle (as control), gemcitabine (at 120 mg/kg), ABRAXANE® (at 120 mg/kg) and NE-DHA-SBT-1214 (at 10 and 25 mg/kg) as either single in combination with either IgG control or anti-PD-L1 antibody (200 μg/dose). The antibodies were administered intraperitoneally. The treatment started two weeks after tumor transplantation when tumor mass became palpable at 50 to 150 mm^3 in volume.
All experiments involving the use of animals were carried out in strict accordance with the recommendations in the guide for the care and use of laboratory animals of the National Institutes of Health, via a research protocol that was approved by Northeastern University Institutional Animal Care and Use Committee (IACUC). […] Tumor development was monitored twice weekly. The tumor size was measured with a caliper on a weekly basis and approximate tumor volumes determined using the formula 0.5ab^2, where b is the smaller of the two perpendicular diameters. […]

The subject of series [3] is drug-resistant colon tumor xenografts. Description: Drug-resistant colon tumor xenografts. Particulars: all surviving mice. The series is classed as in vivo.
In series [4] the test system is PD-L1 surface expression in Panc02 cells. As to the kind of experiment: PD-L1 surface protein expression by flow cytometry. The series is classed as cell-based, murine. The conditions noted are these: IC50 concentration, 48 hours. The procedure:
(§1) Cells were seeded at 0.5×10^6 cells/well in 6-well plates for overnight at 37 C in a humidified atmosphere containing 5% CO2. […] The percentage maximal response is shown as a function of anti-cancer agents when administered to Panc02 cells. The cell viability was measured by the MTT assay after 96 hours of incubation at 37° C. Data represent mean±standard deviation (n=3). Significant differences are indicated as follows: *p<0.05, and **p<0.01. The expression level of PD-L1 was determined using flow cytometry as follows. Briefly, cells harvested from in vitro cultures were washed twice with 3% BSA/PBS and then incubated with rat anti-PD-L1 or isotype control antibodies (mouse, BioXcell, West Lebanon, N.H., USA) for 30 minutes at 4 C, then washed three times and incubated with anti-rat AlexaFluor 488 conjugated Antibody. The cells were washed once with 3% BSA/PBS and analyzed by flow cytometer on a FACSCalibur flow cytometer and CellQuest™ Pro version 6.0 software (both from Becton-Dickinson and Co.).
Panc02 cells were treated with gemcitabine, Abraxane™, paclitaxel and DHA-SBT-1214 both in solution and nanoemulsion for 48 hours to determine whether they can induce PD-L1 protein expression. PD-L1 expression levels on tumor cells were determined by flow cytometry and is expressed as the A mean fluorescence intensity (ΔMFI; MFI using anti-PD-L1 subtracted from the isotype control). […] PD-L1 expression was analyzed using flow cytometry and is presented as ΔMFI (MFI using anti-PD-L1 subtracted from the isotype control). Data represent the mean±standard deviation of at least 3 independent experiments; *p<0.05, **p<0.01, ***p<0.001. As reported previously, PD-L1 level enhanced in pancreatic tumor tissues compared to in vitro growing cells as shown in FIG. 8.
Background: Flow cytometry measures light scatter and fluorescence of single cells or particles in a stream.

Series [5] concerns Panc02 cells. As to the kind of experiment: Cell viability (MTT assay) in Panc02 cells. The series is classed as cell-based, murine. Particulars: 96 hours of drug exposure. The procedure:
The murine pancreatic cancer cell line Panc02, which is syngeneic to C57Bl/6 mice was a kind gift from Professor Michael A. Hollingsworth, UNMC, Omaha, Nebr. Panc02 cells were grown in 75 cm^2 cell culture flasks and maintained in DMEM medium supplemented with 10% fetal bovine serum (FBS), L-glutamine and penicillin (100 U/ml)/streptomycin (100 μg/ml) (both from Gibco Life Technologies, Carlsbad, Calif., USA). Cells were incubated at 37° C. in a humidified atmosphere containing 5% CO2.
To see cytotoxic effect of different drugs and nanoemulsion formulation, 5000 cells were seeded in each well of the 96-well plate for overnight at 37° C. in a humidified atmosphere containing 5% CO2. Various drugs (Paclitaxel, Abraxane, Gemcitabine and solution and nanoemulsion of DHA-SBT-1214) were diluted at concentrations ranging from 0 nM, 0.01 nM, 0.1 nM, 1 nM, 10 nM, 100 nM, 1000 nM to 10000 nM and Panc02 cells treated with these concentrations for 96 hours. After incubation, cells were treated with 3-(4,5-dimethylthiazol-2-yl)-2,5-diphenyltetrazolium bromide ([…]). MU crystals were dissolved with DMSO and plates were read at 570 nm absorbance using a BioTek Synergy HTX Multi-Mode Microplate Reader.
as §1, with “Briefly, cells harvested from in vitro cultures were washed twice with 3% BSA/PBS and then incubated with rat anti-PD-L1 or isotype control antibodies (mouse, BioXcell, West Lebanon, N.H., USA) for 30 minutes at 4 C, then washed three times and incubated with anti-rat AlexaFluor 488 conjugated Antibody.” left out, “Co.). […]” for “Co.).”
For orientation: Formazan colour is commonly taken as a measure of viable cells.

Take `CC/C=C\C/C=C\C/C=C\C/C=C\C/C=C\C/C=C\CCC(=O)O[C@@H](C(=O)O[C@H]1C[C@@]2(O)[C@@H](OC(=O)c3ccccc3)[C@@H]3[C@]4(OC(C)=O)CO[C@@H]4C[C@H](O)[C@@]3(C)C(=O)[C@H](OC(=O)C3CC3)C(=C1C)C2(C)C)[C@H](C=C(C)C)NC(=O)OC(C)(C)C` [DHA-SBT-1214, Docosahexaenoic acid conjugate of SBT-1214]: in series [1], the “increase in drug concentration in omega-3 fatty acid based nanoemulsion by DHA conjugation” value was 5 fold. Besides, the stability entry in series [1] (in Solutol-HS15) is “less than 24 hours”. The compound further came in with a formulated drug concentration in series [1] (in Tween 80 or Solutol-HS15) of 6 mg/mL. Moreover, the “efficacy compared to abraxane at 120 mg/kg” value in series [2] (10 mg/kg) is “superior to abraxane treatment”. In series [3], the tumor growth delay is given as more than 167 days and the tumor regression result is recorded as “complete regression”. Moreover, the “PD-L1 surface expression (ΔMFI)” value in series [4] is “upregulated”. Further, in series [5], the IC50 (in general, the concentration needed to halve the response being measured) was 262 nM.
Consider `Nc1ccn([C@@H]2O[C@H](CO)[C@@H](O)C2(F)F)c(=O)n1` [gemcitabine], for which the tumor growth suppression result in series [2] (120 mg/kg weekly ×3) is “moderate effect”. For the same compound, the “PD-L1 surface expression (ΔMFI)” value in series [4] is “upregulated”. Besides, the IC50 in series [5] (Mus musculus) is 154 nM.
